According to patent publication US10308615B2, “Heterocyclic compounds as inhibitors of Vanin-1 enzyme” (Pfizer Inc., priority 2015, dated 2019):

Tests used:
DSS-induced colitis = assay: DSS (Dextran Sodium Sulfate)-induced colitis mouse model of IBD; assay type: in vivo, mice
Procedure: Induced Colitis Mouse Model Methods
Example 1 along with sulfasalazine was evaluated in DSS (Dextran Sodium Sulfate) —induced colitis mouse model of IBD. Experimental colitis was induced in healthy young female BALB/C mice by providing 4% DSS; molecular weight 36,000-50,000 (wt/vol) in drinking water ad-libitium for seven days followed by water alone for another seven days. At the commencement of the study, mice were between 7-8 weeks of age, weighing 18-20 g. All the mice were obtained from The Jackson Laboratory, Bar Harbor, Me. 04609 USA. The test articles Example 1 and vehicle were administered subcutaneously (sc) once a day beginning day −1 and continued till day 14. The positive control, Sulfasalazine was dosed orally (po) once a day beginning day 5 and continued till day 14 (Table 2). The body weights were recorded prior to dosing and daily thereafter for fourteen days. Clinical assessments of the mice were performed every other day beginning day 5. The clinical assessment includes body weight, stool consistency and the presence of blood in the stools and scored accordingly to the Table-3. At the end of the study mice were sacrificed using CO2 asphyxiation and colon from the colocecal junction to the anus was removed, washed and cleaned of all fecal matter using PBS, measured and weighed. The data are presented as the mean±standard error (SEM). Data were analyzed using two-way ANOVA using Bonferroni post-test. groups were considered significant at p<0.05.

human vanin-1 [1] = target: T1, human vanin-1 (Homo sapiens (Human), UniProt O95497); assay: Human Vanin-1 Enzyme Assay 2; assay type: biochemical; conditions: 1 nM human vanin-1, 10 uM substrate, 45 min
T1 sequence (O95497 22-491): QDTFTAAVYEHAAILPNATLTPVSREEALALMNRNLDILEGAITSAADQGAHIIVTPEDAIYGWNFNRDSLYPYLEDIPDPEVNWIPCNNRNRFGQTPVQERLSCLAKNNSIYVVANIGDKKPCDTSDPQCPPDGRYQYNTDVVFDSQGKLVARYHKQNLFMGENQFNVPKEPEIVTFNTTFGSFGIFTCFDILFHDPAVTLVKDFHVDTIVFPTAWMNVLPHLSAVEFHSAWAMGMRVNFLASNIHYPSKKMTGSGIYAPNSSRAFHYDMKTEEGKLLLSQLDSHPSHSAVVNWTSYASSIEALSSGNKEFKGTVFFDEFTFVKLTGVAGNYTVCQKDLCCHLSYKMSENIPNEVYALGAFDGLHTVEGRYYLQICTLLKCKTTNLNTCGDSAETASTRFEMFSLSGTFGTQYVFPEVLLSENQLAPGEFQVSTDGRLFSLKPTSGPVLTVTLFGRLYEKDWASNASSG
Outline: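 Purified CHO-expressed His/FLAG-tagged human vanin-1 extracellular domain (1 nM) cleaved pantetheine-AMC-CF3 substrate (10 uM) in pH 8.0 Tris buffer with 1.5 mM cysteamine and 1% DMSO. Fluorescence (ex 405/em 505 nm) was read after 45 min, over an 11-point half-log inhibitor series.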

human vanin-1 [2] = target: T1, human vanin-1; assay: Human Vanin-1 Enzyme Assay 1; assay type: biochemical; conditions: 25 pM human vanin-1, 50 uM pantetheine 7-amino-4-trifluoromethylcoumarin, 30 min preincubation, 60 min
Outline: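 Purified His6/FLAG-tagged extracellular domain of human vanin-1, secreted from CHO cells, at 25 pM final in 50 mM Tris-HCl pH 8.0, 50 mM KCl, 0.005% Brij-35, 1.6 mM cysteamine, 0.5% DMSO. Inhibitor preincubated 30 min at room temperature; 50 uM pantetheine-AFC substrate, 60 min, fluorescence at 405/510 nm; 11-point four-fold dilution series.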

human vanin-1 [3] = target: T1, human vanin-1; assay: Human Vanin-1 Enzyme Assay 3; assay type: biochemical; conditions: 2 nM human vanin-1, 10 uM substrate, 15 min
Outline: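 His/FLAG-tagged extracellular domain of human vanin-1 from CHO cells, used at 2 nM final, with 10 uM pantetheine-AFC substrate. Buffer: 50 mM Tris-HCl pH 8.0, 50 mM KCl, 0.005% Brij-35, 1.5 mM cysteamine, 1% DMSO. 15 min at room temperature; fluorescence read at 405/505 nm across an 11-point 2-fold dilution series.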

[4] = 50 mg/kg sc QD days -1-14, 4% DSS, female BALB/C mice

Compound | IC50 (human vanin-1 [1]) | IC50 (human vanin-1 [2]) | IC50 (human vanin-1 [3]) | Disease Activity Index (DAI) (DSS-induced colitis; [4]) | colon length (DSS-induced colitis; [4]) | loss of body weight (DSS-induced colitis; [4]) | improvement in the colitis (FIG. 1-3) (DSS-induced colitis; 100 mg/kg po QD days 5-14, positive control)
N#Cc1cccc(C(=O)c2cnc(NCc3ccnnc3)nc2)c1 [Example 112, 3-({2-[(pyridazin-4-ylmethyl)amino]pyrimidin-5-yl}carbonyl) benzonitrile] | 856 nM | 5570 nM | 1870 nM |  |  |  | 
N#Cc1cccc(CNc2ncc(C(=O)c3ccccc3)cn2)c1 [Example 113, 3-{[(5-benzoylpyrimidin-2-yl)amino]methyl} benzonitrile] | 334 nM | 872 nM | 259 nM |  |  |  | 
O=C(c1ccccc1)c1cnc(NC2(c3cccnc3)CC2)nc1 [Example 114, phenyl(2-{[1-(pyridin-3-yl)cyclopropyl]amino}pyrimidin-5-yl)methanone] | 254 nM | 380 nM | 170 nM |  |  |  | 
O=C(c1ccccc1)c1cnc(NCc2cccnn2)nc1 [Example 115, phenyl{2-[(pyridazin-3-ylmethyl)amino]pyrimidin-5-yl}methanone] | 1510 nM | 1400 nM | 806 nM |  |  |  | 
N#Cc1cccc(C(=O)c2cnc(NCc3cccnc3)nc2)c1 [Example 118, 3-({2-[(pyridin-3-ylmethyl)amino]pyrimidin-5-yl}carbonyl) benzonitrile] | 11.2 nM | 4 nM | 4.6 nM |  |  |  | 
CC(C)(Nc1ncc(C(=O)c2ccc3c(c2)OCCO3)cn1)c1ccccc1 [Example 124, 2,3-dihydro-1,4-benzodioxin-6-yl{2-[(2-phenylpropan-2-yl)amino]pyrimidin-5-yl}methanone] | 798 nM | 526 nM | 223 nM |  |  |  | 
CS(=O)(=O)c1cccc(C(=O)c2cnc(NCc3ccc(C#N)cc3)nc2)c1 [Example 126, 4-[({5-[3-(methylsulfonyl)benzoyl]pyrimidin-2-yl}amino)methyl] benzonitrile] | 44 nM | 28.2 nM | 40.6 nM |  |  |  | 
O=C(c1cnc(NCc2cccnc2)nc1)c1cc(F)cc(C(F)(F)F)c1 [Example 128, [3-fluoro-5-(trifluoromethyl)phenyl]{2-[(pyridin-3-ylmethyl)amino]pyrimidin-5-yl}methanone] | 38.9 nM | 38.1 nM | 43.5 nM |  |  |  | 
O=C(O)c1cc(/N=N/c2ccc(S(=O)(=O)Nc3ccccn3)cc2)ccc1O [Sulfasalazine, reference compound] |  |  |  |  |  |  | improvement in the colitis

More lines, in order of falling IC50 (human vanin-1 [1]), values ahead:

IC50 (human vanin-1 [1]) | IC50 (human vanin-1 [2]) | IC50 (human vanin-1 [3]) | Compound | Disease Activity Index (DAI) (DSS-induced colitis; [4]) | colon length (DSS-induced colitis; [4]) | loss of body weight (DSS-induced colitis; [4]) | improvement in the colitis (FIG. 1-3) (DSS-induced colitis; 100 mg/kg po QD days 5-14, positive control)
561 nM | 419 nM | 321 nM | O=C(c1ccccc1)c1cnc(NCc2cnccn2)nc1 [Example 116, phenyl{2-[(pyrazin-2-ylmethyl)amino]pyrimidin-5-yl}methanone] |  |  |  | 
50.4 nM | 32.3 nM | 9.1 nM | CC(C)(Nc1ncc(C(=O)c2cccc(C(F)(F)F)c2)cn1)c1ccccc1 [Example 121, {2-[(2-phenylpropan-2-yl)amino]pyrimidin-5-yl}[3-(trifluoromethyl)phenyl]methanone] |  |  |  | 
37.8 nM | 36 nM | 16.6 nM | N#Cc1cccc(C(=O)c2cnc(NCc3cncnc3)nc2)c1 [Example 120, 3-({2-[(pyrimidin-5-ylmethyl)amino]pyrimidin-5-yl}carbonyl) benzonitrile] |  |  |  | 
31.8 nM | 50.5 nM | 18.1 nM | N#Cc1cccc(C(=O)c2cnc(NCc3cnccn3)nc2)c1 [Example 117, 3-({2-[(pyrazin-2-ylmethyl)amino]pyrimidin-5-yl}carbonyl) benzonitrile] |  |  |  | 
7 nM | 4.1 nM |  | N#Cc1cccc(C(=O)c2cnc(NC3(c4cncnc4)CC3)nc2)c1 [Example 1, 3-[(2-{[1-(pyrimidin-5-yl)cyclopropyl]amino}pyrimidin-5-yl)carbonyl]benzonitrile] | mark improvement | mark improvement | mark improvement | 
